# Measurements published in publication PMC12217481, “Structure and mechanism of taniborbactam inhibition of the cefepime-hydrolyzing, partial R2-loop deletion Pseudomonas-derived cephalosporinase variant PDC-88” (Antimicrobial Agents and Chemotherapy, 2025).
# Like-named read-outs stand apart in the source and are kept apart here.
# What was measured:
# [1] = system: E. coli DH10B/pTU626 (PDC-89); assay: Broth microdilution MIC, isogenic E. coli expressing PDC-89; format: cell-based; conditions: Escherichia coli
# Method: (§1) Genetic constructs used for minimum inhibitory concentration (MIC) testing were designed by Venatorx Pharmaceuticals and codon-optimized for use in E. coli and synthesized by Twist Bioscience as described previously ([9]). […] DH10B cells expressing an empty pET24a(+) vector (Novagen) were also grown, and the plasmid purified. Both pCR4-TOPO-PDC-88 and empty pET24a(+) were cut with BamHI and NdeI, the digests run on low-melting point agarose gels, and the bands of interest excised and ligated to yield a PDC-88 expressing pET24a(+) construct with the His tag removed. The PDC-3 expression construct was created in a similar manner but starting with a previously described pBC SK(−) vector ([42]). The final plasmids were grown in E. coli DH10B cells and purified.
# (§2) Modal broth microdilution MICs (or median broth microdilution MICs where appropriate) were determined in accordance with Clinical and Laboratory Standards Institute (CLSI) M07 guidelines ([43]). Isogenic E. coli DH10B cells expressing the abovementioned plasmid-encoded PDC constructs were used. […] CLSI quality control strains Escherichia coli NCTC 13353, E. coli ATCC 35218, and Klebsiella pneumoniae ATCC 700603 were used during testing ([24]).
# [2] = system: E. coli DH10B/pTU625 (PDC-88); assay: Broth microdilution MIC, isogenic E. coli expressing PDC-88; format: cell-based, Escherichia coli; conditions: for MIC: Escherichia coli
# Method: as §1, §2
# [3] = system: E. coli DH10B/pTU609 (PDC-3); assay: Broth microdilution MIC, isogenic E. coli expressing PDC-3; format: cell-based; conditions: Escherichia coli
# Method: as §1, §2
# [4] = molecular target: T1, PDC-88 (Pseudomonas aeruginosa, UniProt P24735, DEL316-317/G27D/G391A/T105A/V205L/V356I); assay: Timed ESI-MS of acyl-enzyme formation, PDC-88; format: biochemical; conditions: timed ESI-MS, 1 to 30 min (ATM to 60 min)
# T1 construct: NdeI 5′-[…]-3ʹ and BamHI 5ʹ-[…]-3ʹ; His tag removed) (N); made in house; host or cells: E. coli BL21-CodonPlus (DE3)-RP, pET24a(+)
# Method: Timed ESI-MS experiments allow tracking of the reaction over time and determination of product modification, enabling the elucidation of mechanistic detail. Time courses were collected for both PDC-3 and PDC-88 with FEP (Fig. 4), CAZ (Fig. S1), TOL (Fig. S2), and ATM (Fig. S3). Substrate modification (here, loss of the R2 group) was determined based on differences between masses of apo and acyl-enzyme peaks (Fig. S4). […] Based on the differences in mass between the apo enzyme peaks, the acyl-enzyme peaks, and the molecular masses of each substrate, the mass of the adducts was determined and used to predict any portion of the substrate molecule that might be lost during the reaction (Fig. S4). As expected ([26][–][28]), all three cephalosporin antibiotics (FEP, CAZ, and TOL) lost their R2 groups during the reaction, while ATM (the sole monobactam) maintained its initial mass.
# Five micrograms of PDC-3 or PDC-88 was incubated at the indicated molar ratio (1:2 to 1:100 PDC:β-lactam) in a total volume of 20 µL in 1× PBS at pH 7.4 at room temperature for the duration of the indicated time points. Reactions were quenched with the addition of 10 µL acetonitrile and added to 1 mL of 0.1% formic acid in water.
# Data were collected using a Waters Synapt G2-Si quadrupole time-of-flight (Q-TOF) mass spectrometer and Waters Acquity UPLC BEH C18 1.7 µm column (2.1 by 100 mm). MassLynx V4.1 was used to deconvolute protein peaks. The tune settings for each sample were as follows: capillary voltage of 3.5 kV, sampling cone voltage of 35 V, source offset of 35 V, source temperature of 100°C, desolvation temperature of 500°C, cone gas flow rate of 100 L/h, desolvation gas flow rate of 800 L/h, and nebulizer bar at 6.0. Mobile phase A was 0.1% formic acid in water. Mobile phase B was 0.1% formic acid in acetonitrile. The mass accuracy of this system is ±5 Da.
# [5] = system: E. coli DH10B/pTU501 (vector); assay: Broth microdilution MIC, isogenic E. coli empty vector control; format: cell-based; conditions: Escherichia coli
# Method: as §1, §2
# [6] = system: E. coli DH10B/pTU606 (PDC-1); assay: Broth microdilution MIC, isogenic E. coli expressing PDC-1; format: cell-based; conditions: Escherichia coli
# Method: as §1, §2
smiles,measurement,setting,value
"CO/N=C(\C(=O)N[C@@H]1C(=O)N2C(C(=O)[O-])=C(C[N+]3(C)CCCC3)CS[C@H]12)c1csc(N)n1 [FEP, cefepime]",MIC,[1]; read-out: MIC FEP AVI,0.25 µg/mL
same,MIC,[1]; read-out: MIC FEP TZB,16 µg/mL
same,MIC,"[1]; E. coli DH10B/pTU626 (PDC-89), FEP with TAN at constant 4 µg/mL, read-out: MIC FEP TAN",0.25 µg/mL
same,MIC,"[1]; E. coli DH10B/pTU626 (PDC-89), read-out: MIC FEP Alone",32 µg/mL
same,MIC,[2]; read-out: MIC FEP AVI,0.25 µg/mL
same,MIC,[2]; read-out: MIC FEP TZB,16 µg/mL
same,MIC,"[2]; E. coli DH10B/pTU625 (PDC-88), FEP with TAN at constant 4 µg/mL, read-out: MIC FEP TAN",0.25 µg/mL
same,MIC,"[2]; E. coli DH10B/pTU625 (PDC-88), read-out: MIC FEP Alone",32 µg/mL
same,"increase of cefepime MIC, PDC-88 compared to PDC-3",[2]; {},16 fold
same,MIC,[3]; read-out: MIC FEP AVI,0.25 µg/mL
same,MIC,[3]; read-out: MIC FEP TZB,2 µg/mL
same,MIC,"[3]; E. coli DH10B/pTU609 (PDC-3), FEP with TAN at constant 4 µg/mL, read-out: MIC FEP TAN",0.25 µg/mL
same,MIC,"[3]; E. coli DH10B/pTU609 (PDC-3), read-out: MIC FEP Alone",2 µg/mL
same,acyl-enzyme complex formation and deacylation,[4],"formed an acyl-enzyme complex with FEP, followed by relatively quick deacylation"
same,MIC,[5]; read-out: MIC FEP AVI,0.12 µg/mL
same,MIC,[5]; read-out: MIC FEP Alone,0.12 µg/mL
same,MIC,[5]; read-out: MIC FEP TAN,0.12 µg/mL
same,MIC,[5]; read-out: MIC FEP TZB,0.12 µg/mL
same,MIC,[6]; read-out: MIC FEP TZB,2 µg/mL
same,MIC,"[6]; E. coli DH10B/pTU606 (PDC-1), read-out: MIC FEP Alone",2 µg/mL
